# Reference: publication PMC12223310, “Mining the heparinome for cryptic antimicrobial peptides that selectively kill Gram-negative bacteria” (Molecular Systems Biology, 2025)
# Where two headings read alike, the source gives them in different places. Ends that are not written are not given here.
# Tests used:
# Escherichia coli = assay type: cell-based, Escherichia coli BW25113
# Method: (§1) Antimicrobial activities were determined by the microtiter broth dilution method recommended by the National Committee of Laboratory Safety and Standards (NCLSS), adapted for AMPs (Wiegand et al, [2008]). Briefly, overnight bacterial cell cultures were brought to an exponential growth state (OD600 = 0.4) in MH broth and diluted to a final concentration of 5 × 10^5 CFU/mL. In all, 1:2 peptide serial dilutions were prepared in 96-well polypropylene plates (Greiner, Frickenhausen, Germany), in MH medium containing 0.2% (w/v) of bovine serum albumin (BSA) and 0.02% glacial acetic acid. […] The lowest concentration with no colonies was taken as MBC. The results are the average of three independent studies.
# Staphylococcus aureus = assay type: cell-based, Staphylococcus aureus ATCC 12600
# Method: as §1
# Listeria monocytogenes = assay type: cell-based, Listeria monocytogenes ATCC 19112
# Method: as §1
# [1] = tested on: Pseudomonas sp (Pseudomonas aeruginosa); assay type: cell-based, Pseudomonas aeruginosa ATCC 15915
# Method: as §1
# Acinetobacter baumannii = assay type: cell-based, Acinetobacter baumannii ATCC 15308
# Method: as §1
# Enterococcus faecium = assay type: cell-based, Enterococcus faecium ATCC 19434
# Method: as §1
# P. aeruginosa 827632 = assay type: cell-based
# Method: as §1
# P. aeruginosa 827651 = assay type: cell-based
# Method: as §1
# E. coli CFT073 = assay type: cell-based
# Method: as §1
# A. baumannii 3880 = assay type: cell-based
# Method: as §1
# E. coli 1166795 = assay type: cell-based
# Method: as §1
# A. baumannii 3878 = assay type: cell-based
# Method: as §1
# in vitro = assay type: cell-based; settings: human, MRC-5 cells
# Method: (§2) Toxicity in MRC-5 and HepG2 cells was tested by the MTT assay, as described (Bello-Madruga et al, [2023]). Cell lines were maintained in Eagle’s minimum essential medium (MEMα) supplemented with 10% fetal bovine serum (FBS). Cells were cultured in 75-cm^2 flasks and then transferred to polystyrene 96-well plates, at 3 × 10^4 cells per well, and incubated overnight for attachment to the well surface. Then culture media was removed and 1:2 peptide serial dilutions in MEMα were added to each well and later incubated for 4 h. After incubation, peptides were removed and 100 μL of 0.5 mg/mL MTT staining solution in MEMα supplemented with 10% FBS was added to cells and incubated for 1.5 h at 37 °C. Formazan crystals in living cells were detected after disruption with 200 μL dimethyl sulfoxide and then absorbance was measured at 570 nm in a Tecan Spark instrument (Tecan, Männedorf, Switzerland). The results are the average of three independent studies.
# Cytotoxicity, MTT assay = assay type: cell-based; settings: human, HepG2 cells, 4 h peptide incubation in MEMα, average of three studies, read-out: LC50 (HepG2 cells)
# Method: as §2
# horse erythrocytes = assay type: cell-based
# Method: Peptide toxicity was tested on horse erythrocytes (Sandín et al, [2021]). Horse defibrinated blood was washed three times in phosphate buffer saline (PBS) pH 7.2 by centrifugation at 3× 3000 rpm for 10 min, to remove excess hemoglobin in the supernatant and then diluted tenfold in PBS. Next, 50 μL of erythrocytes were added to a 1.5 mL polypropylene tube and incubated with 50 μL of a 1:2 peptide serial dilution in PBS. An erythrocyte disruption (ED) control was prepared by adding 50 μL of 0.1% TritonX-100 in PBS instead of the peptides and an intact erythrocyte (IC) control by adding 50 μL of PBS alone. All samples and controls were incubated for 2 h at 37 °C. Samples were centrifuged at 3000 rpm for 3 min, and the supernatants were transferred to a polystyrene 96-well plate and inspected for ED by reading the absorbance at 540 nm in a Tecan Spark instrument (Tecan, Männedorf, Switzerland). The results are the average of three independent studies. The hemolysis percentage was calculated as: Hemolysis%=Sample−IC/ED−IC×100
Compound,MIC E. coli (Escherichia coli),MIC S. aureus (Staphylococcus aureus),MIC L. monocytogenes (Listeria monocytogenes),MIC Pseudomonas sp [1],MIC A. baumannii (Acinetobacter baumannii),MBC E. coli (Escherichia coli),MBC E. faecium (Enterococcus faecium),MIC E. faecium (Enterococcus faecium),MBC S. aureus (Staphylococcus aureus),MBC L. monocytogenes (Listeria monocytogenes),MBC P. aeruginosa 827632 (P. aeruginosa 827632),MIC P. aeruginosa 827632 (P. aeruginosa 827632),MBC P. aeruginosa 827651 (P. aeruginosa 827651),MIC P. aeruginosa 827651 (P. aeruginosa 827651),MBC E. coli CFT073 (E. coli CFT073),MIC E. coli CFT073 (E. coli CFT073),CC50 at 4 h (in vitro),"CC50 at 4 h (Cytotoxicity, MTT assay)",MBC Pseudomonas sp [1],MBC A. baumannii (Acinetobacter baumannii),also measured
HNLFRKLTHRLFRQNFGYTLRSV-NH2 [Peptide R14],0.4 µM,6.3 µM,3.1 µM,0.4 µM,0.4 µM,,,,,,,,,,,,,,,,
HNLFRKLTHQLFRRNFGYTLRSV-NH2 [Peptide R10],0.4 µM,6.3 µM,1.6 µM,0.8 µM,0.4 µM,,,,,,,,,,,,,,,,
GWKDKKSYRWFLQHRPQVGYIRVRFY-NH2 [HBP-4],0.2 µM,3.1 µM,1.6 µM,0.8 µM,0.8 µM,0.2 µM,50 µM,12.5 µM,12.5 µM,3.1 µM,6.3 µM,6.3 µM,6.3 µM,3.1 µM,1.6 µM,0.8 µM,35 µM,38 µM,0.8 µM,0.8 µM,MBC A. baumannii 3880 (A. baumannii 3880): 1.6 µM; MIC A. baumannii 3880 (A. baumannii 3880): 1.6 µM; MBC E. coli 1166795 (E. coli 1166795): < 0.1 µM; MIC E. coli 1166795 (E. coli 1166795): < 0.1 µM; MBC A. baumannii 3878 (A. baumannii 3878): 0.8 µM; MIC A. baumannii 3878 (A. baumannii 3878): 0.8 µM
"CC[C@H](C)[C@H](NC(=O)[C@H](CCCCN)NC(=O)[C@H](CCC(=O)O)NC(=O)[C@H](CCCCN)NC(=O)[C@H](CO)NC(=O)[C@H](CCCCN)NC(=O)[C@H](CCCNC(=N)N)NC(=O)[C@H](Cc1ccccc1)NC(=O)[C@H](Cc1ccccc1)NC(=O)[C@H](CC(=O)O)NC(=O)CNC(=O)[C@H](CC(C)C)NC(=O)[C@@H](N)CC(C)C)C(=O)NCC(=O)N[C@@H](CCCCN)C(=O)N[C@@H](CCC(=O)O)C(=O)N[C@@H](Cc1ccccc1)C(=O)N[C@@H](CCCCN)C(=O)N[C@@H](CCCNC(=N)N)C(=O)N[C@H](C(=O)N[C@H](C(=O)N[C@@H](CCC(N)=O)C(=O)N[C@@H](CCCNC(=N)N)C(=O)N[C@H](C(=O)N[C@@H](CCCCN)C(=O)N[C@@H](CC(=O)O)C(=O)N[C@@H](Cc1ccccc1)C(=O)N[C@@H](CC(C)C)C(=O)N[C@@H](CCCNC(=N)N)C(=O)N[C@@H](CC(N)=O)C(=O)N[C@@H](CC(C)C)C(=O)N[C@H](C(=O)N1CCC[C@H]1C(=O)N[C@@H](CCCNC(=N)N)C(=O)N[C@H](C(=O)N[C@@H](CCC(=O)O)C(=O)N[C@@H](CO)C(N)=O)[C@@H](C)O)C(C)C)[C@@H](C)CC)C(C)C)[C@@H](C)CC [LL-37, reference compound]",,25 µM,0.8 µM,0.8 µM,6.3 µM,,3.1 µM,0.8 µM,25 µM,3.1 µM,,,,,,,,53 µM,0.8 µM,6.3 µM,"MBC E. coli (Escherichia coli; MIC wells plated on LB agar, overnight 37 °C, no colonies, average of three studies): 3.1 µM; MIC E. coli (Escherichia coli; microtiter broth dilution, MH broth, 5 × 10^5 CFU/mL, overnight 37 °C, average of three studies): 1.6 µM; CC50 at 4 h (in vitro; MTT, 4 h peptide incubation in MEMα, average of three studies, read-out: LC50 (MRC-5 cells)): 26 µM"
RWHLTHRPKTGYIRVLVH-NH2 [HBP-1],1.6 µM,50 µM,6.3 µM,3.1 µM,1.6 µM,1.6 µM,≥100/ > 100 µM,≥100/ > 100 µM,> 100 µM,12.5 µM,25 µM,25 µM,50 µM,25 µM,3.1 µM,3.1 µM,> 200 µM,> 200 µM,3.1 µM,1.6 µM,MBC A. baumannii 3880 (A. baumannii 3880): 12.5 µM; MIC A. baumannii 3880 (A. baumannii 3880): 12.5 µM; MBC E. coli 1166795 (E. coli 1166795): 1.6 µM; MIC E. coli 1166795 (E. coli 1166795): 1.6 µM; MBC A. baumannii 3878 (A. baumannii 3878): 1.6 µM; MIC A. baumannii 3878 (A. baumannii 3878): 1.6 µM
FRFKRKLPKYLLF-NH2 [HBP-3],3.1 µM,25 µM,6.3 µM,6.3 µM,0.8 µM,3.1 µM,>100/ > 100 µM,>100/ > 100 µM,50 µM,12.5 µM,25 µM,25 µM,12.5 µM,12.5 µM,25 µM,12.5 µM,> 200 µM,> 200 µM,6.3 µM,0.8 µM,MBC A. baumannii 3880 (A. baumannii 3880): 6.3 µM; MIC A. baumannii 3880 (A. baumannii 3880): 6.3 µM; MBC E. coli 1166795 (E. coli 1166795): 1.6 µM; MIC E. coli 1166795 (E. coli 1166795): 1.6 µM; MBC A. baumannii 3878 (A. baumannii 3878): 6.3 µM; MIC A. baumannii 3878 (A. baumannii 3878): 6.3 µM
RFYLSKKKWVMVP-NH2 [HBP-2],12.5 µM,>100/ > 100 µM,37.5 µM,25 µM,50 µM,25 µM,>100/ > 100 µM,>100/ > 100 µM,>100/ > 100 µM,> 100 µM,> 100 µM,> 100 µM,> 100 µM,> 100 µM,100 µM,50 µM,> 200 µM,> 200 µM,50 µM,50 µM,MBC A. baumannii 3880 (A. baumannii 3880): > 50 µM; MIC A. baumannii 3880 (A. baumannii 3880): > 50 µM; MBC E. coli 1166795 (E. coli 1166795): 12.5 µM; MIC E. coli 1166795 (E. coli 1166795): 12.5 µM; MBC A. baumannii 3878 (A. baumannii 3878): 50 µM; MIC A. baumannii 3878 (A. baumannii 3878): 50 µM
HNLFRKLTHRLFRRNFGYTL-NH2 [HBP-5 [1–20]],0.4 µM,6.3 µM,1.6 µM,0.4 µM,0.4 µM,,,,,,,,,,,,63 ± 1 µM,,,,Hemolysis (250 µM peptide) (horse erythrocytes): 24 ± 2
HNLFRKLTAALFRANFGYTLRSV-NH2 [ΔCPC’],1.6 µM,6.3 µM,3.1 µM,1.6 µM,1.6 µM,,,,,,,,,,,,,,,,
